Data from patent publication US12472272B2, “Radiolabelled compounds for diagnosis or treatment of prostate-specific membrane antigen- expressing cancer” (PROVINCIAL HEALTH SERVICES AUTHORITY, priority 2019, dated 2025).

Key:
LNCaP tumors = test: SPECT/CT imaging of ^177Lu-labeled HTK03041; type: in vivo, mice; conditions: 1 h to 120 h post-injection, FIG. 4
Experimental: (§1) Imaging and biodistribution experiments were performed using NODSCID 1L2RγKO male mice. Mice were anesthetized by inhalation with 2% isoflurane in oxygen, and implanted subcutaneously with 1×10^7 LNCaP cells behind left shoulder. Mice were imaged or used in biodistribution studies when the tumor grew up to reach 5-8 mm in diameter during 5-6 weeks.
SPECT/CT imaging experiments were conducted using the MlLabs (Utrecht, the Netherlands) U-SPECT-II/CT scanner. Each tumor bearing mouse was injected with ˜37 MBq of ^177Lu-labeled HTK03041 through the tail vein under anesthesia (2% isoflurane in oxygen). The mice were allowed to recover and roam freely in their cage and imaged at 1, 4, 24, 72 and 120 hours after injection. At each time point, the mice were sedated again and positioned in the scanner. A 5-min CT scan was conducted first for anatomical reference with a voltage setting at 60 kV and current at 615 μA followed by a 60-min static emission scan acquired in list mode using an ultra-high resolution multi-pinhole rat-mouse (1 mm pinhole size) collimator. Data were reconstructed using the U-SPECT II software with a 20% window width on three energy windows. The photopeak window was centered at 208 keV, with lower scatter and upper scatter windows centered at 170 and 255 keV, respectively. […]

[1] = test system: PSMA-expressing cancer xenografts (LNCaP); test: Biodistribution of ^177Lu-labeled HTK03041; type: in vivo, mice; conditions: for Tissue (% ID/g): Adrenal glands / Tissue (% ID/g): Blood / Tissue (% ID/g): Bone / Tissue (% ID/g): Brain / Tissue (% ID/g): Fat / Tissue (% ID/g): Heart / Tissue (% ID/g): Intestine / Tissue (% ID/g): Kidneys / Tissue (% ID/g): Lacrimal / Tissue (% ID/g): Liver / Tissue (% ID/g): Lungs / Tissue (% ID/g): Muscle / Tissue (% ID/g): Pancreas / Tissue (% ID/g): Salivary / Tissue (% ID/g): Seminal / Tissue (% ID/g): Spleen / Tissue (% ID/g): Stomach / Tissue (% ID/g): Tail / Tissue (% ID/g): Testes / Tissue (% ID/g): Thyroid / Tissue (% ID/g): Tumor / Tissue (% ID/g): Urine / tumor-to-background contrast ratio Tumor: Blood / tumor-to-background contrast ratio Tumor: Muscle / tumor-to-background contrast ratio Tumor: kidney: ^177Lu
Experimental: as §1
SPECT/CT imaging experiments were conducted using the MlLabs (Utrecht, the Netherlands) U-SPECT-II/CT scanner. Each tumor bearing mouse was injected with ˜37 MBq of ^177Lu-labeled HTK03041 through the tail vein under anesthesia (2% isoflurane in oxygen). The mice were allowed to recover and roam freely in their cage and imaged at 1, 4, 24, 72 and 120 hours after injection. At each time point, the mice were sedated again and positioned in the scanner. A 5-min CT scan was conducted first for anatomical reference with a voltage setting at 60 kV and current at 615 μA followed by a 60-min static emission scan acquired in list mode using an ultra-high resolution multi-pinhole rat-mouse (1 mm pinhole size) collimator. Data were reconstructed using the U-SPECT II software with a 20% window width on three energy windows. The photopeak window was centered at 208 keV, with lower scatter and upper scatter windows centered at 170 and 255 keV, respectively. Reconstruction parameters used maximum-likelihood expectation maximization (3 iterations), pixel-based ordered subset expectation maximization (16 subsets), and a post-processing filter (Gaussian blurring) of 0.5 mm. Images were decay corrected to injection time in PMOD (PMOD Technologies, Switzerland) then converted to DICOM for qualitative visualization in Inveon Research Workplace (Siemens Medical Solutions USA, Inc.).
For biodistribution studies, the mice were injected with the radiotracer as described above. At predetermined time points (1 or 3 h for ^68Ga studies; 1, 4, 24, 72, or 120 h for ^177Lu studies), the mice was anesthetized with 2% isoflurane inhalation, and euthanized by CO2 inhalation. Blood was withdrawn immediately from the heart, and the organs/tissues of interest were collected. The collected organs/tissues were weighed and counted using a Perkin Elmer (Waltham, MA) Wizard2 2480 gamma counter. The uptake in each organ/tissue was normalized to the injected dose using a standard curve, and expressed as the percentage of the injected dose per gram of tissue (% ID/g).

Structure (SMILES): O=C([O-])CN1CCN(CC(=O)[O-])CCN(CC(=O)NC[C@H]2CC[C@H](C(=O)N[C@@H](Cc3c4ccccc4cc4ccccc34)C(=O)NCCCC[C@H](NC(=O)N[C@@H](CCC(=O)O)C(=O)O)C(=O)O)CC2)CCN(CC(=O)[O-])CC1.[177Lu+3] [^177Lu-HTK03041]
- uptake in background tissues including kidneys in SPECT images (LNCaP tumors): cleared quickly over time
- uptake in tumor in SPECT images (LNCaP tumors): sustained over the course the study
- peaked tumor uptake ([1]; LNCaP tumor-bearing mice): ~20 % ID/g
- Tissue (% ID/g): Adrenal glands ([1]; 1 h post-injection): 5.53 ± 1.90 % ID/g
- Tissue (% ID/g): Blood ([1]; 1 h post-injection): 0.84 ± 0.15 % ID/g
- Tissue (% ID/g): Bone ([1]; 1 h post-injection): 0.29 ± 0.07 % ID/g
- Tissue (% ID/g): Brain ([1]; 1 h post-injection): 0.04 ± 0.01 % ID/g
- Tissue (% ID/g): Fat ([1]; 1 h post-injection): 1.09 ± 0.20 % ID/g
- Tissue (% ID/g): Heart ([1]; 1 h post-injection): 2.44 ± 0.43 % ID/g
- Tissue (% ID/g): Intestine ([1]; 1 h post-injection): 1.25 ± 0.15 % ID/g
- Tissue (% ID/g): Kidneys ([1]; 1 h post-injection): 98.6 ± 9.27 % ID/g
- Tissue (% ID/g): Lacrimal ([1]; 1 h post-injection): 0.03 ± 0.04 % ID/g
- Tissue (% ID/g): Liver ([1]; 1 h post-injection): 1.91 ± 0.38 % ID/g
- Tissue (% ID/g): Lungs ([1]; 1 h post-injection): 4.41 ± 0.49 % ID/g
- Tissue (% ID/g): Muscle ([1]; 1 h post-injection): 0.94 ± 0.20 % ID/g
- Tissue (% ID/g): Pancreas ([1]; 1 h post-injection): 1.61 ± 0.24 % ID/g
- Tissue (% ID/g): Salivary ([1]; 1 h post-injection): 5.88 ± 0.82 % ID/g
- Tissue (% ID/g): Seminal ([1]; 1 h post-injection): 1.22 ± 0.85 % ID/g
- Tissue (% ID/g): Spleen ([1]; 1 h post-injection): 8.80 ± 2.53 % ID/g
- Tissue (% ID/g): Stomach ([1]; 1 h post-injection): 0.47 ± 0.18 % ID/g
- Tissue (% ID/g): Tail ([1]; 1 h post-injection): 3.41 ± 3.03 % ID/g
- Tissue (% ID/g): Testes ([1]; 1 h post-injection): 1.01 ± 0.17 % ID/g
- Tissue (% ID/g): Thyroid ([1]; 1 h post-injection): 3.38 ± 0.44 % ID/g
- Tissue (% ID/g): Tumor ([1]; 1 h post-injection): 10.8 ± 1.57 % ID/g
- Tissue (% ID/g): Urine ([1]; 1 h post-injection): 160 ± 49.6 % ID/g
- tumor-to-background contrast ratio Tumor: Blood ([1]; 1 h post-injection): 13.4 ± 4.08
- tumor-to-background contrast ratio Tumor: Muscle ([1]; 1 h post-injection): 12.1 ± 4.21
- tumor-to-background contrast ratio Tumor: kidney ([1]; 1 h post-injection): 0.11 ± 0.02
- Tissue (% ID/g): Adrenal glands ([1]; 4 h post-injection): 3.41 ± 0.54 % ID/g
- Tissue (% ID/g): Blood ([1]; 4 h post-injection): 0.31 ± 0.04 % ID/g
- Tissue (% ID/g): Bone ([1]; 4 h post-injection): 0.45 ± 0.53 % ID/g
- Tissue (% ID/g): Brain ([1]; 4 h post-injection): 0.05 ± 0.05 % ID/g
- Tissue (% ID/g): Fat ([1]; 4 h post-injection): 0.56 ± 0.16 % ID/g
- Tissue (% ID/g): Heart ([1]; 4 h post-injection): 1.69 ± 0.13 % ID/g
- Tissue (% ID/g): Intestine ([1]; 4 h post-injection): 0.95 ± 0.08 % ID/g
- Tissue (% ID/g): Kidneys ([1]; 4 h post-injection): 101 ± 13.3 % ID/g
- Tissue (% ID/g): Lacrimal ([1]; 4 h post-injection): 0.02 ± 0.01 % ID/g
- Tissue (% ID/g): Liver ([1]; 4 h post-injection): 1.46 ± 0.17 % ID/g
- Tissue (% ID/g): Lungs ([1]; 4 h post-injection): 3.20 ± 0.41 % ID/g
- Tissue (% ID/g): Muscle ([1]; 4 h post-injection): 0.56 ± 0.15 % ID/g
- Tissue (% ID/g): Pancreas ([1]; 4 h post-injection): 1.15 ± 0.13 % ID/g
- Tissue (% ID/g): Salivary ([1]; 4 h post-injection): 2.18 ± 0.56 % ID/g
- Tissue (% ID/g): Seminal ([1]; 4 h post-injection): 0.57 ± 0.12 % ID/g
- Tissue (% ID/g): Spleen ([1]; 4 h post-injection): 3.22 ± 1.01 % ID/g
- Tissue (% ID/g): Stomach ([1]; 4 h post-injection): 0.37 ± 0.06 % ID/g
- Tissue (% ID/g): Tail ([1]; 4 h post-injection): 1.06 ± 0.60 % ID/g
- Tissue (% ID/g): Testes ([1]; 4 h post-injection): 0.92 ± 0.10 % ID/g
- Tissue (% ID/g): Thyroid ([1]; 4 h post-injection): 2.10 ± 0.19 % ID/g
- Tissue (% ID/g): Tumor ([1]; 4 h post-injection): 18.7±2.96 % ID/g
- Tissue (% ID/g): Urine ([1]; 4 h post-injection): 84.6 ± 39.3 % ID/g
- tumor-to-background contrast ratio Tumor: Blood ([1]; 4 h post-injection): 60.3 ± 4.81
- tumor-to-background contrast ratio Tumor: Muscle ([1]; 4 h post-injection): 34.4 ± 8.39
- tumor-to-background contrast ratio Tumor: kidney ([1]; 4 h post-injection): 0.19 ± 0.02
- Tissue (% ID/g): Adrenal glands ([1]; 24 h post-injection): 0.76 ± 0.10 % ID/g
- Tissue (% ID/g): Blood ([1]; 24 h post-injection): 0.07 ± 0.00 % ID/g
- Tissue (% ID/g): Bone ([1]; 24 h post-injection): 0.07 ± 0.02 % ID/g
- Tissue (% ID/g): Brain ([1]; 24 h post-injection): 0.01 ± 0.00 % ID/g
- Tissue (% ID/g): Fat ([1]; 24 h post-injection): 0.16 ± 0.02 % ID/g
- Tissue (% ID/g): Heart ([1]; 24 h post-injection): 0.41 ± 0.07 % ID/g
- Tissue (% ID/g): Intestine ([1]; 24 h post-injection): 0.30 ± 0.06 % ID/g
- Tissue (% ID/g): Kidneys ([1]; 24 h post-injection): 20.3 ± 6.51 % ID/g
- Tissue (% ID/g): Lacrimal ([1]; 24 h post-injection): 0.00 ± 0.00 % ID/g
- Tissue (% ID/g): Liver ([1]; 24 h post-injection): 0.42 ± 0.08 % ID/g
- Tissue (% ID/g): Lungs ([1]; 24 h post-injection): 0.83 ± 0.12 % ID/g
